Source: patent publication US20160368895A1, “PULMONARY HYPERTENSION TREATING AGENT” (THE UNIVERSITY OF TOKYO, priority 2013, published 2016)

Target: T1, human PGI2 receptors (hIP) (Homo sapiens, UniProt P43119)
T1 construct: expressed in transfected cells; host or cells: CHO-K1
Assay: Method C: effect on epoprostenol-cAMP production curve in CHO/hIP cells (left shift value)
Format: cell-based
Details: Table 4, concentration of test compound that halves the EC50 of epoprostenol
Method: The effect of a test compound on the cAMP production curve with respect to the IP agonist epoprostenol (manufactured by GlaxoSmithKline) was investigated using CHO-K1 cells (CHO/hIP cells) in which human PGI2 receptors (hIP) are stably expressed.
An amount of 5 μL of a mixture (diluted in F-12 culture medium (manufactured by GIBCO) including 0.1% BSA) of epoprostenol dissolved in DMSO and a test compound dissolved in DMSO was dispensed in advance into a 384-well black microplate, and 5 μL of CHO/hIP cells suspended at a concentration of 1.4×10^6 cells/mL in F-12 culture medium including 0.1% BSA were added to the microplate. After 40 minutes of incubation at room temperature, the amount of cAMP was measured using a cAMP assay kit (cAMP HiRange, manufactured by Cisbio Bioassays). Specifically, 5 μL of a cAMP-d2 solution (including a cell lysate) from the kit were added and the reaction was stopped, then 5 μL of a fluorescence-labeled cAMP antibody solution from the kit were added and incubation was performed for 1 hour at room temperature, after which fluorescence was measured using a PHERAstar plate reader (manufactured by BMG) in HTRF (registered trademark) mode. The amount of cAMP in each well was calculated from a cAMP calibration curve obtained using a standard sample, and an epoprostenol-cAMP production curve for the presence of various concentrations of the test compound was created.

T1 sequence (P43119 whole entry): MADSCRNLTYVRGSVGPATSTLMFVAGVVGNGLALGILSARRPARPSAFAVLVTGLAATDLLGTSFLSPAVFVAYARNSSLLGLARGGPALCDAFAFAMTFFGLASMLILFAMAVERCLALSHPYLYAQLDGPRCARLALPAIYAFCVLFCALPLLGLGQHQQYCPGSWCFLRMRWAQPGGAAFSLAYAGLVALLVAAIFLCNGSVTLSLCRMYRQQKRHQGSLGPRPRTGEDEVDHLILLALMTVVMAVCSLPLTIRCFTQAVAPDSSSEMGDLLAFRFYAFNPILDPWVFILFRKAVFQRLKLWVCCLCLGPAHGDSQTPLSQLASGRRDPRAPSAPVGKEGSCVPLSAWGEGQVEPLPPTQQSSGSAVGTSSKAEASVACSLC

| SMILES | left shift value [µM] |
| --- | --- |
| Cc1ccccc1C(c1nnnn1C(C)(C)C)N1CCc2ccccc2C1 (centres unmarked) [Example 55] | 35 |
| CCCOc1ccccc1C(c1nnnn1C(C)(C)C)N1CCc2ccccc2C1 (centres unmarked) [Example 52] | 4.3 |
| CC(C)(C)n1nnnc1C(c1ccccc1Cl)N1CCc2ccccc2C1 (centres unmarked) [Example 53] | 7.2 |

Same assay, conditions: Table 5, concentration of test compound that halves the EC50 of epoprostenol

| SMILES | left shift value [µM] |
| --- | --- |
| CC(C)(C)n1nnnc1C(c1ccccc1F)N1CCc2sccc2C1 (centres unmarked) [Example 69, 5-((1-(tert-butyl)-1H-tetrazol-5-yl)(2-fluorophenyl)methyl)-4,5,6,7-tetrahydrothieno[3,2-c]pyridine] | 20.6 |
| COc1ccsc1C(c1nnnn1C1(C)CCCCC1)N1CCc2sccc2C1 (centres unmarked) [Example 75, 5-((3-methoxythiophen-2-yl)(1-(1-methylcyclohexyl)-1H-tetrazol-5-yl)methyl)-4,5,6,7-tetrahydrothieno[3,2-c]pyridine] | 2.1 |
| CC1(n2nnnc2C(c2cccs2)N2CCc3sccc3C2)CCCCC1 (centres unmarked) [Example 74, 5-((1-(1-methylcyclohexyl)-1H-tetrazol-5-yl)(thiophen-2-yl)methyl)-4,5,6,7-tetrahydrothieno[3,2-c]pyridine] | 8.6 |
| CC(C)(C)n1nnnc1C(c1nccs1)N1CCc2ccccc2C1 (centres unmarked) [Example 73, 2-((1-(tert-butyl)-1H-tetrazol-5-yl)(3,4-dihydroisoquinolin-2(1H)-yl)methyl)thiazole] | 44.6 |
| COc1ccccc1C(c1nnnn1C1(C)CCCCC1)N1CCc2sccc2C1 (centres unmarked) [Example 76, 5-((2-methoxyphenyl)(1-(1-methylcyclohexyl)-1H-tetrazol-5-yl)methyl)-4,5,6,7-tetrahydrothieno[3,2-c]pyridine] | 7.2 |
| COc1ccccc1C(c1nnnn1C(C)(C)C)N1CCC2CCCCC2C1 (centres unmarked) [Example 82, 2-((1-(tert-butyl)-1H-tetrazol-5-yl)(2-methoxyphenyl)methyl)deca-hydroisoquinoline] | 6.2 |
| CC1(n2nnnc2C(c2cccc(F)c2O)N2CCc3ccccc3C2)CCCCC1 (centres unmarked) [Example 83] | 25.0 |
| CC(C)(C)n1nnnc1C(c1ccc[nH]1)N1CCc2sccc2C1 (centres unmarked) [Example 66, 5-((1-(tert-butyl)-1H-tetrazol-5-yl)(1H-pyrrol-2-yl)methyl)-4,5,6,7-tetrahydrothieno[3,2-c]pyridine] | 84.5 |
| COc1ccccc1C(c1nnnn1C(C)(C)C)N1CCc2sccc2C1 (centres unmarked) [Example 60, 5-((1-(tert-butyl)-1H-tetrazol-5-yl)(2-methoxyphenyl)methyl)-4,5,6,7-tetrahydrothieno[3,2-c]pyridine] | 10.5 |
| CC(C)(C)n1nnnc1C(c1ccccc1)N1CCc2sccc2C1 (centres unmarked) [Example 59, 5-((1-(tert-butyl)-1H-tetrazol-5-yl)(phenyl)methyl)-4,5,6,7-tetrahydrothieno[3,2-c]pyridine] | 16.1 |
| COc1c(F)cccc1C(c1nnnn1C(C)(C)C)N1CCc2ccccc2C1 (centres unmarked) [Example 80, 2-((1-(tert-butyl)-1H-tetrazol-5-yl)(3-fluoro-2-methoxyphenyl)methyl)-1,2,3,4-tetrahydroisoquinoline] | 26.5 |
| CSc1ccccc1C(c1nnnn1C(C)(C)C)N1CCc2sccc2C1 (centres unmarked) [Example 70, 5-((1-(tert-butyl)-1H-tetrazol-5-yl)(2-(methylthio)phenyl)methyl)-4,5,6,7-tetrahydrothieno[3,2-c]pyridine] | 14.8 |
| COc1ccc(C(c2nnnn2C(C)(C)C)N2CCc3sccc3C2)cc1 (centres unmarked) [Example 63, 5-((1-(tert-butyl)-1H-tetrazol-5-yl)(4-methoxyphenyl)methyl)-4,5,6,7-tetrahydrothieno[3,2-c]pyridine] | 34.9 |
| CC1(n2nnnc2C(c2ccccc2O)N2CCc3ccccc3C2)CCCCC1 (centres unmarked) [Example 71, 2-((3,4-dihydroisoquinolin-2(1H)-yl)-(1-(1-methylcyclohexyl)-1H-tetrazol-5-yl)methyl)phenol] | 2.3 |
| CC(C)(C)n1nnnc1C(c1cccs1)N1CCc2sccc2C1 (centres unmarked) [Example 62, 5-((1-(tert-butyl)-1H-tetrazol-5-yl)(thiophen-2-yl)methyl)-4,5,6,7-tetrahydrothieno[3,2-c]pyridine] | 12.2 |
| CC(C)(C)n1nnnc1C(c1ccccc1Br)N1CCc2sccc2C1 (centres unmarked) [Example 65, 5-((2-bromophenyl)(1-(tert-butyl)-1H-tetrazol-5-yl)methyl)-4,5,6,7-tetrahydrothieno[3,2-c]pyridine] | 66.2 |
| CC(C)(C)n1nnnc1C(c1ccsc1)N1CCc2sccc2C1 (centres unmarked) [Example 68, 5-((1-(tert-butyl)-1H-tetrazol-5-yl)(thiophen-3-yl)methyl)-4,5,6,7-tetrahydrothieno[3,2-c]pyridine] | 15.5 |
| COc1ccsc1C(c1nnnn1C(C)(C)C)N1CCc2sccc2C1 (centres unmarked) [Example 72, 5-((1-(tert-butyl)-1H-tetrazol-5-yl)(3-methoxythiophen-2-yl)methyl)-4,5,6,7-tetrahydrothieno[3,2-c]pyridine] | 3.2 |

Target: T1, human PGI2 receptors (hIP)
Assay: Method A: positive allosteric modulator activity, cAMP in CHO/hIP cells with 100 pM iloprost
Format: cell-based
Details: cAMP relative to 100 pM iloprost alone, test compound 5 uM
Method: The positive allosteric modulator activity of a test compound was measured as a change in the amount of intracellular cyclic AMP (cAMP) in the presence of 100 pM of the IP agonist iloprost (manufactured by CAYMAN CHEMICAL), using CHO-K1 cells (CHO/hIP cells) in which human PGI2 receptors (hIP) are stably expressed.
An amount of 5 μL of a mixture (diluted in F-12 culture medium (manufactured by GIBCO) including 0.1% BSA) of iloprost dissolved in DMSO and a test compound dissolved in DMSO was dispensed in advance into a 384-well black microplate, and 5 μL of CHO/hIP cells suspended at a concentration of 1.6×10^6 cells/mL in F-12 culture medium including 0.1% BSA were added to the microplate. After 40 minutes of incubation at room temperature, the amount of cAMP was measured using a cAMP assay kit (cAMP HiRange, manufactured by Cisbio Bioassays). Specifically, 5 μL of a cAMP-d2 solution (including a cell lysate) from the kit were added and the reaction was stopped, then 5 μL of a fluorescence-labeled cAMP antibody solution from the kit was added and incubation was performed for 1 hour at room temperature, after which fluorescence was measured using a PHERAstar plate reader (manufactured by BMG) in HTRF (registered trademark) mode. The amount of cAMP in each well was calculated from a cAMP calibration curve obtained using a standard sample, and the activity of each test compound is noted below as a ratio T/C (%) based on the amount of cAMP for 100 pM of isoprost alone. All of the compounds included in this table were purchased from Asinex Corporation.

| SMILES | T/C % [%] |
| --- | --- |
| CC(C)(C)n1nnnc1C(c1ccccc1)N1CCc2ccccc2C1 (centres unmarked) [drawing 104] | 143 |

Same assay, conditions: cAMP relative to 100 pM iloprost alone, test compound 10 uM

| SMILES | T/C % [%] |
| --- | --- |
| Oc1ccc(C(c2nnnn2Cc2ccc(F)cc2)N2CCc3ccccc3C2)cc1 (centres unmarked) | 113 |
| COc1ccc(C(c2nnnn2Cc2ccc(F)cc2)N2CCc3ccccc3C2)cc1OC (centres unmarked) | 96 |
| COc1ccc(C(c2nnnn2CCc2ccccc2)N2CCc3ccccc3C2)c(OC)c1 (centres unmarked) | 106 |
| COc1ccc(C(c2nnnn2CS(=O)(=O)c2ccc(C)cc2)N2CCc3ccccc3C2)cc1 (centres unmarked) | 101 |
| Cc1ccc(C(c2nnnn2C2CCCC2)N2CCc3ccccc3C2)cc1 (centres unmarked) | 105 |
| COc1cc(C(c2nnnn2Cc2ccc(F)cc2)N2CCc3ccccc3C2)ccc1O (centres unmarked) | 91 |
| CCC(C)(C)n1nnnc1C(c1ccccc1)N1CCc2ccccc2C1 (centres unmarked) | 202 |
| Cc1ccc(Cn2nnnc2C(c2ccc(F)cc2)N2CCc3ccccc3C2)cc1 (centres unmarked) | 106 |
| CCC(C)(C)n1nnnc1C(c1ccc(Cl)cc1)N1CCc2ccccc2C1 (centres unmarked) | 148 |
| CCC(C)(C)n1nnnc1C(c1ccc(F)cc1)N1CCc2ccccc2C1 (centres unmarked) | 155 |
| COc1ccc(Cn2nnnc2C(c2ccccc2)N2CCc3ccccc3C2)cc1 (centres unmarked) | 104 |
| COc1ccc(C(c2nnnn2CCc2ccccc2)N2CCc3ccccc3C2)cc1OC (centres unmarked) | 106 |
| COc1ccc(OC)c(C(c2nnnn2C2CCCC2)N2CCc3ccccc3C2)c1 (centres unmarked) | 92 |
| COc1ccc(OC)c(C(c2nnnn2C(C)(C)C)N2CCc3ccccc3C2)c1 (centres unmarked) | 100 |
| Cc1ccc(S(=O)(=O)Cn2nnnc2C(c2ccc(F)cc2)N2CCc3ccccc3C2)cc1 (centres unmarked) | 93 |
| COCCn1nnnc1C(c1cc(OC)ccc1OC)N1CCc2ccccc2C1 (centres unmarked) | 90 |
| c1ccc(Cn2nnnc2C(c2ccccc2)N2CCc3ccccc3C2)cc1 (centres unmarked) | 112 |
| CCC(C)(C)n1nnnc1C(c1ccc(O)c(OC)c1)N1CCc2ccccc2C1 (centres unmarked) | 122 |
| CCC(C)(C)n1nnnc1C(c1ccccc1OC)N1CCc2ccccc2C1 (centres unmarked) | 215 |
| Clc1ccc(C(c2nnnn2C2CCCC2)N2CCc3ccccc3C2)cc1 (centres unmarked) | 110 |

More lines, now with the values ahead:

| T/C % [%] | SMILES |
| --- | --- |
| 112 | Cc1ccc(C(c2nnnn2Cc2ccccc2)N2CCc3ccccc3C2)cc1 (centres unmarked) [drawing 121] |
| 112 | c1ccc(C(c2nnnn2C2CCCCC2)N2CCc3ccccc3C2)cc1 (centres unmarked) [drawing 120] |
| 103 | Cc1ccc(C(c2nnnn2Cc2ccccc2)N2CCc3ccccc3C2)cc1 (centres unmarked) [drawing 151] |
| 111 | c1ccc(CCn2nnnc2C(c2ccccc2)N2CCc3ccccc3C2)cc1 (centres unmarked) [drawing 142] |
| 98 | c1ccc(C(c2nnnn2C2CCCCC2)N2CCc3ccccc3C2)cc1 (centres unmarked) [drawing 138] |
